From article PMC11831592, “Repurposing Linezolid in Conjunction with Histone Deacetylase Inhibitor Access in the Realm of Glioblastoma Therapies” (Journal of Medicinal Chemistry, 2025)

Target: T1, HDAC6 (Homo sapiens, UniProt Q9UBN7)
T1 construct: purchased Reaction Biology Corporation, Malvern, PA (contract assay service)
T1 sequence (Q9UBN7 1-1215): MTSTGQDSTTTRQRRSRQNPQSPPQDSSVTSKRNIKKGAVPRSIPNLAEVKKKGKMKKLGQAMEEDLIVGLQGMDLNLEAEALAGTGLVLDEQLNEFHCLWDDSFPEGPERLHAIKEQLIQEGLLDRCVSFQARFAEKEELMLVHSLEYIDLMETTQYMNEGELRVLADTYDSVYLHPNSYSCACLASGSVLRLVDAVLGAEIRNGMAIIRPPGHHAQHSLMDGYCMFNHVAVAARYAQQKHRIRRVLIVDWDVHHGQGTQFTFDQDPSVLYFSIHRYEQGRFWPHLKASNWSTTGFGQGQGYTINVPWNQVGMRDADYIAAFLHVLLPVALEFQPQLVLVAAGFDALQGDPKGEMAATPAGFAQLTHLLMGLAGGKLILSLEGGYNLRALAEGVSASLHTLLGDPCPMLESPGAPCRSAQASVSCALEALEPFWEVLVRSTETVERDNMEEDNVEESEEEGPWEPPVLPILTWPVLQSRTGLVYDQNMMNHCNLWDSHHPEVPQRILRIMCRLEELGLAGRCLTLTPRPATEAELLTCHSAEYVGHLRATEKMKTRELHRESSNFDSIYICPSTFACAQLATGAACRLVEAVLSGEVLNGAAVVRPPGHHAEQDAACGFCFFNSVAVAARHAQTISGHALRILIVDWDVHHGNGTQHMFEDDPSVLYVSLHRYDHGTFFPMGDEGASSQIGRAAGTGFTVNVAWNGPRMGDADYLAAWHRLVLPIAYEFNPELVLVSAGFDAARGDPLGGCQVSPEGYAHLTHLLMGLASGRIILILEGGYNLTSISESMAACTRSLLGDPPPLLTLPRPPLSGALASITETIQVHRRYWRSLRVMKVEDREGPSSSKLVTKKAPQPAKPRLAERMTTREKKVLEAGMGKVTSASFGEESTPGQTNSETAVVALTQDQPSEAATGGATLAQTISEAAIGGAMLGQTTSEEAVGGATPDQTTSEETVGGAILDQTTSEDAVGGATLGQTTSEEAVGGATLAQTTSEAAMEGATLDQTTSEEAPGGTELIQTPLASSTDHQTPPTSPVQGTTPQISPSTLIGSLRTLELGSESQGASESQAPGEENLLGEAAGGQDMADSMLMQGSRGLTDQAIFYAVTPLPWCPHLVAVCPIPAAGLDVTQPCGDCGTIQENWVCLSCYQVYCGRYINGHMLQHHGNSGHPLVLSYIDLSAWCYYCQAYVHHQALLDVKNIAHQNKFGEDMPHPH
Test: HDAC enzyme inhibition assay, HDAC6
Type: biochemical
Conditions: 10-dose, 3-fold serial dilution starting at 10 μM
Method: Enzyme inhibition assays were performed by the Reaction Biology Corporation, Malvern, PA (http://www.reactionbiology.com).

O=C(/C=C/c1ccc(CNC[C@H]2CN(c3ccc(N4CCOCC4)c(F)c3)C(=O)O2)cc1)NO [compound 1, (S,E)-3-(4-((((3-(3-Fluoro-4-morpholinophenyl)-2-oxooxazolidin-5-yl)methyl)ami-no)methyl)phenyl)-N-hydroxyacrylamide]
IC50: 106 nM
